Reference: ChEMBL document CHEMBL1201862, “PubChem BioAssay data set” (2004)
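Interpolation was linear, between the two tested concentrations surrounding the appropriate level; five concentrations were tested over 48 hours in 96-well plates. GI50 = concentration required for 50% inhibition of growth.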 Calls of active or inactive are those of the source. No stated cut-off is given here; in the data, active = GI50 up to about 1.1 µM and inactive = higher.

Key:
Assay in all cases: NCI-60 cell line screen, 48 h
786-0 = system: 786-0
A498 = system: A498
A549 = system: A549
ACHN = system: ACHN
BT-549 = system: BT-549
CAKI-1 = system: CAKI-1
CCRF-CEM = system: CCRF-CEM
COLO 205 = system: COLO 205
DLD-1 = system: DLD-1
DMS-114 = system: DMS-114
DU-145 = system: DU-145
EKVX = system: EKVX
HCC 2998 = system: HCC 2998
HCT-116 = system: HCT-116
HCT-15 = system: HCT-15
HL-60 = system: HL-60
HOP-18 = system: HOP-18
HOP-62 = system: HOP-62
HOP-92 = system: HOP-92
HT-29 = system: HT-29
Hs-578T = system: Hs-578T
IGROV-1 = system: IGROV-1
K562 = system: K562
KM-20L2 = system: KM-20L2
KM12 = system: KM12
LOX IMVI = system: LOX IMVI
LXFL 529 = system: LXFL 529
M14 = system: M14
M19-MEL = system: M19-MEL
MCF7 = system: MCF7
MDA-MB-231 = system: MDA-MB-231
MDA-MB-435 = system: MDA-MB-435
MDA-N = system: MDA-N
MOLT-4 = system: MOLT-4
Malme-3M = system: Malme-3M
NCI-H226 = system: NCI-H226
NCI-H23 = system: NCI-H23
NCI-H460 = system: NCI-H460
NCI-H522 = system: NCI-H522
NCI/ADR-RES = system: NCI/ADR-RES
OVCAR-3 = system: OVCAR-3
OVCAR-4 = system: OVCAR-4
OVCAR-5 = system: OVCAR-5
OVCAR-8 = system: OVCAR-8
PC-3 = system: PC-3
RPMI-8226 = system: RPMI-8226
RXF 393 = system: RXF 393
RXF 631 = system: RXF 631
SF-268 = system: SF-268
SF-295 = system: SF-295
SF-539 = system: SF-539
SK-MEL-28 = system: SK-MEL-28
SK-MEL-2 = system: SK-MEL-2
SK-MEL-5 = system: SK-MEL-5
SK-OV-3 = system: SK-OV-3
SN12C = system: SN12C
SNB-19 = system: SNB-19
SNB-75 = system: SNB-75
SNB-78 = system: SNB-78
SR = system: SR
SW-620 = system: SW-620
T47D = system: T47D
TK-10 = system: TK-10
U-251 = system: U-251
UACC-257 = system: UACC-257
UACC-62 = system: UACC-62
UO-31 = system: UO-31
DMS-273 = system: DMS-273

With O=c1c2ccccc2n2cnc3ccc(NCCNCCO)c1c32 the GI50 (786-0) was 0.889 µM (active), the GI50 (A498) was 1.71 µM (inactive) and the GI50 (A549) was 1.05 µM (active). For the same compound, the GI50 (ACHN) was 0.836 µM (active), the GI50 (BT-549) was 3.66 µM (inactive) and the GI50 (CAKI-1) was 2.43 µM (inactive). The GI50 (CCRF-CEM) was 1.22 µM (inactive), the GI50 (COLO 205) was 0.834 µM (active) and the GI50 (DLD-1) was 2.59 µM (inactive). For the same compound, the GI50 (DMS-114) was 2.04 µM (inactive), the GI50 (DU-145) was 0.384 µM (active) and the GI50 (EKVX) was 2.56 µM (inactive). The GI50 (HCC 2998) was 1.77 µM (inactive), the GI50 (HCT-116) was 0.798 µM (active) and the GI50 (HCT-15) was 3.18 µM. The GI50 (HL-60) was 2.42 µM (inactive), the GI50 (HOP-18) was 2.4 µM (inactive) and the GI50 (HOP-62) was 1.4 µM (inactive). The GI50 (HOP-92) was 4.24 µM (inactive), the GI50 (HT-29) was 1.06 µM (active) and the GI50 (Hs-578T) was 2.37 µM (inactive). The GI50 (IGROV-1) was 1.91 µM (inactive), the GI50 (K562) was 1.34 µM (inactive) and the GI50 (KM-20L2) was 1.41 µM (inactive). For the same compound, the GI50 (KM12) was 1.17 µM (inactive), the GI50 (LOX IMVI) was 1.11 µM (active) and the GI50 (LXFL 529) was 2.3 µM (inactive). For the same compound, the GI50 (M14) was 2.71 µM (inactive), the GI50 (M19-MEL) was 2.96 µM (inactive) and the GI50 (MCF7) was 2.52 µM (inactive). For the same compound, the GI50 (MDA-MB-231) was 2.31 µM (inactive), the GI50 (MDA-MB-435) was 1.52 µM (inactive) and the GI50 (MDA-N) was 1.9 µM (inactive). The GI50 (MOLT-4) was 0.359 µM (active), the GI50 (Malme-3M) was 2.36 µM (inactive) and the GI50 (NCI-H226) was 1.29 µM (inactive). For the same compound, the GI50 (NCI-H23) was 2.16 µM (inactive), the GI50 (NCI-H460) was 0.536 µM (active) and the GI50 (NCI-H522) was 1.49 µM (inactive). The GI50 (NCI/ADR-RES) was 2.81 µM (inactive), the GI50 (OVCAR-3) was 2.19 µM (inactive) and the GI50 (OVCAR-4) was 1.44 µM (inactive). For the same compound, the GI50 (OVCAR-5) was 2.02 µM (inactive), the GI50 (OVCAR-8) was 0.855 µM (active) and the GI50 (PC-3) was 1.91 µM (inactive). The GI50 (RPMI-8226) was 2.2 µM (inactive), the GI50 (RXF 393) was 0.757 µM (active) and the GI50 (RXF 631) was 1.26 µM (inactive). For the same compound, the GI50 (SF-268) was 1.46 µM (inactive), the GI50 (SF-295) was 1.83 µM (inactive) and the GI50 (SF-539) was 3.24 µM (inactive). The GI50 (SK-MEL-28) was 3.18 µM (inactive), the GI50 (SK-MEL-2) was 3.03 µM (inactive) and the GI50 (SK-MEL-5) was 1.88 µM (inactive). For the same compound, the GI50 (SK-OV-3) was 2.99 µM (inactive), the GI50 (SN12C) was 1.51 µM (inactive) and the GI50 (SNB-19) was 3.78 µM (inactive). For the same compound, the GI50 (SNB-75) was 1.86 µM (inactive), the GI50 (SNB-78) was 2.06 µM (inactive) and the GI50 (SR) was 0.467 µM (active). For the same compound, the GI50 (SW-620) was 0.589 µM (active), the GI50 (T47D) was 4.76 µM (inactive) and the GI50 (TK-10) was 2.92 µM (inactive). For the same compound, the GI50 (U-251) was 2.1 µM (inactive), the GI50 (UACC-257) was 3.37 µM (inactive) and the GI50 (UACC-62) was 2.31 µM (inactive). For the same compound, the GI50 (UO-31) was 2.87 µM (inactive).

O=C1OC(c2ccccc2)(c2ccccc2)CC1CN1CCOCC1 (stereo not drawn) was tested, and the GI50 (786-0) was 16.7 µM (inactive), the GI50 (A498) was > 100 µM (inactive) and the GI50 (A549) was 10.7 µM (inactive). The GI50 (ACHN) was 17.7 µM (inactive), the GI50 (CCRF-CEM) was 2.77 µM (inactive) and the GI50 (COLO 205) was 6.18 µM (inactive). For the same compound, the GI50 (DLD-1) was 17.1 µM (inactive), the GI50 (DMS-114) was 18 µM (inactive) and the GI50 (DMS-273) was 38.2 µM (inactive). For the same compound, the GI50 (EKVX) was 33.7 µM (inactive), the GI50 (HCC 2998) was 16.5 µM (inactive) and the GI50 (HCT-116) was 12.8 µM (inactive). For the same compound, the GI50 (HCT-15) was 16.1 µM, the GI50 (HL-60) was 6.61 µM (inactive) and the GI50 (HOP-18) was 14.6 µM (inactive). For the same compound, the GI50 (HOP-62) was > 100 µM (inactive), the GI50 (HT-29) was 1.95 µM (inactive) and the GI50 (IGROV-1) was > 100 µM (inactive). The GI50 (K562) was 24.2 µM (inactive), the GI50 (KM-20L2) was 18.2 µM (inactive) and the GI50 (KM12) was 16.7 µM (inactive). The GI50 (LOX IMVI) was 11.4 µM (inactive), the GI50 (LXFL 529) was 13.9 µM (inactive) and the GI50 (M14) was 17.1 µM (inactive). The GI50 (M19-MEL) was 15.9 µM (inactive), the GI50 (MOLT-4) was 24.5 µM (inactive) and the GI50 (Malme-3M) was 13.5 µM (inactive). For the same compound, the GI50 (NCI-H23) was 20.6 µM (inactive), the GI50 (NCI-H460) was 60.7 µM (inactive) and the GI50 (NCI-H522) was 10.2 µM (inactive). The GI50 (OVCAR-3) was 15.6 µM (inactive), the GI50 (OVCAR-4) was 23.1 µM (inactive) and the GI50 (OVCAR-5) was 29.2 µM (inactive). The GI50 (OVCAR-8) was 57.8 µM (inactive), the GI50 (RXF 631) was 18.5 µM (inactive) and the GI50 (SF-268) was 27.5 µM (inactive). The GI50 (SF-539) was 17.5 µM (inactive), the GI50 (SK-MEL-28) was 18.1 µM (inactive) and the GI50 (SK-MEL-2) was 17.9 µM (inactive). For the same compound, the GI50 (SK-MEL-5) was 29.3 µM (inactive), the GI50 (SK-OV-3) was 26.5 µM (inactive) and the GI50 (SN12C) was 12.5 µM (inactive). For the same compound, the GI50 (SNB-19) was 44.7 µM (inactive), the GI50 (SNB-75) was 13.9 µM (inactive) and the GI50 (SR) was 3.08 µM (inactive). For the same compound, the GI50 (SW-620) was 5.07 µM (inactive), the GI50 (TK-10) was 14.2 µM (inactive) and the GI50 (U-251) was 25.4 µM (inactive). The GI50 (UACC-257) was 5.98 µM (inactive), the GI50 (UACC-62) was 25.6 µM (inactive) and the GI50 (UO-31) was 29 µM (inactive).
